Experimental data taken from patent US12661334B2, “Dietary butyrate and its uses” (SOCIETE DES PRODUITS NESTLE S.A., priority 2019, dated 2026).

How the values were obtained:
[1] = biological target: T1, porcine pancreatic lipase (PPL) (Sus scrofa, UniProt P00591); details: pig, 3 h, pH 11.5
T1 sequence (P00591 1-450): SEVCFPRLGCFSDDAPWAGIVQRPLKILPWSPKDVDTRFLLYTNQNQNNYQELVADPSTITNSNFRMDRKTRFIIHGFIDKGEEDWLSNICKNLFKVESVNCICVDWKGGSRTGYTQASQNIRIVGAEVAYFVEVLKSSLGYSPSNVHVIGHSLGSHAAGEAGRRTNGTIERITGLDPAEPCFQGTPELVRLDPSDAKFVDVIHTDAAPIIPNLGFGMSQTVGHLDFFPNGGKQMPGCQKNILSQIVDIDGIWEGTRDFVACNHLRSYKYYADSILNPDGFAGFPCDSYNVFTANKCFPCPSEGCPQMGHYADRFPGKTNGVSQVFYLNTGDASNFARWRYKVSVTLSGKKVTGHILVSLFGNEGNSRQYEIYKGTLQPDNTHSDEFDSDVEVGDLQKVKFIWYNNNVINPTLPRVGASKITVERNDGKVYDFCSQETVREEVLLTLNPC
T1 sequence (P02703 23-112 partner): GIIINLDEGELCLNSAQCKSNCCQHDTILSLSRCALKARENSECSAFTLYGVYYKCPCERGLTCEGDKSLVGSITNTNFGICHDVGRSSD
From the text: Because many fatty acids are only partially ionised at pH 6.8, direct titration gives only partial picture of the extent of lipid digestion, instead back titration to pH 11.5 or GC-FAME analysis is required to estimate the full extent of digestion.

[2] = tested on: rabbit gastric lipase (RGL) followed by porcine pancreatic lipase (PPL)
Procedure: 10 wt % oil in water emulsions stabilised by 0.3 wt % polyoxyethylene sorbitan mono-oleate (Tween® 80) were prepared by mixing the Tween 80 into the oil phase at 40° C., then mixing with the water phase using a magnetic stirrer. An emulsion was then created using a Hielscher UP 400S ultrasonic probe homogeniser equipped with a 5 mm diameter rod-like probe by applying 100% amplitude at 100% cycle for 2 minutes whilst the sample was cooled using ice water.
The lipid emulsion (2 mL) containing 200 mg of fat was subjected to gastrointestinal in vitro lipolysis. […] For gastric digestion, the sample was incubated for 90 minutes with 8.5 mL of simulated gastric fluid (SGF), which consisted of 150 mM NaCl, 450 U/mL pepsin, 18 U/mL rabbit gastric lipase at 37° C. and a pH of 5.5.
The intestinal digestion step was performed in the pH stat where the pH was kept constant at 6.8 by addition of NaOH (0.05 M). […] The intestinal digestion step starts when the temperature reaches 37±0.5° C. The pH was adjusted to pH 6.8 and after incubation of two minutes at this pH and temperature, a pancreatin solution (5 mM tris, 150 mM NaCl at pH 6.8) was added. The final composition of the intestinal fluid was 10 mM CaCl2, 12 mM mixed bile salts, 0.75 mM phospholipid, 150 mM NaCl and 4 mM tris(hydroxymethyl)aminomethane buffer. The intestinal digestion step was carried out for 3 hours in a titration manager from Radiometer. During the intestinal phase of digestion, the kinetics of digestion were followed using a pH-stat (TIM856, Radiometer) technique and expressed as titratable acid (rather than fatty acid) that was calculated by the equation: TA=VNaOH×0:05×1000
TA: Total titratable acid released, mmol; VNaOH: volume of NaOH used to titrate the released acid in 3 h, mL.

CCCC(=O)OCC(COC(=O)CCC)OC(=O)CCC [tributyrin]
Extent of digestion [1]: 101.5±0.9%
Total amount of acid released ([2]; rabbit (gastric lipase), pig (pancreatic lipase), 3 h, pH 6.8): 381 ± 20 µmol
Initial lipolysis rate in SIF ([2]; rabbit (gastric lipase), pig (pancreatic lipase), pH 6.8): 44.1 ± 8.8 µmol/min
Lipolysis by gastric lipase ([2]; rabbit, 90 min, 19 mg/mL, pH 5.5): ~60%
